Reference: patent US20250215030A1, “STAT MODULATORS AND USES THEREOF” (Recludix Pharma, Inc., priority 2022, published 2025)

Legend:
pSTAT6 (pY641-STAT6) = target: T1, pSTAT6 (pY641-STAT6) (Homo sapiens, UniProt P42226); assay: MSD-pSTAT-PBMC Assay (pSTAT6, IL-4 stimulated); type: cell-based; conditions: compound 3 hrs, then 1 ng/mL IL-4 for 10 min
T1 construct: host or cells: cryopreserved PBMC
T1 sequence (P42226 1-847): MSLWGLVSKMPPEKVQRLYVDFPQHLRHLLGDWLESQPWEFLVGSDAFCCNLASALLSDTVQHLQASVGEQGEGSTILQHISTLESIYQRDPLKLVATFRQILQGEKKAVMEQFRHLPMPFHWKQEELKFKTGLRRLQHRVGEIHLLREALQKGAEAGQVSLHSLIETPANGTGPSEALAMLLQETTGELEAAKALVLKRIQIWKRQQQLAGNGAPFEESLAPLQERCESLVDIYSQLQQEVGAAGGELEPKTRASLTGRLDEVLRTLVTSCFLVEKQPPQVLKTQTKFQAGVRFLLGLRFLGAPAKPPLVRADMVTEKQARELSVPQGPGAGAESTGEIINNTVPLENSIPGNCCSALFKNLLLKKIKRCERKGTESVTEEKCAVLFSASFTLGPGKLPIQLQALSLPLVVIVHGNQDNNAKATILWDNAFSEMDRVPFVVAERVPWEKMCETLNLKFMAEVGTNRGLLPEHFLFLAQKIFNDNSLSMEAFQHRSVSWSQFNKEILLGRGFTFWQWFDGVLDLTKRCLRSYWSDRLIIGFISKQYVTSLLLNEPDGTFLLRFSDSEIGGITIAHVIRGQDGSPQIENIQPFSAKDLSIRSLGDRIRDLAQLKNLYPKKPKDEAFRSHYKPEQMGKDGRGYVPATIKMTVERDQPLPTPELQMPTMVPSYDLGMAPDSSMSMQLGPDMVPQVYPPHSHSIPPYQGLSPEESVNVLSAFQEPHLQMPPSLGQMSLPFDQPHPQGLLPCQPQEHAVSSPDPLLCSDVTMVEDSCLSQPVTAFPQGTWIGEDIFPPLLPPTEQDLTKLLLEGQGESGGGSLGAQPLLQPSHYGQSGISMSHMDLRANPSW
Outline: (§1)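 Phospho-STAT levels captured on anti-STAT3 or anti-STAT6 plates and detected with anti-pY705 or anti-pY641 antibodies (MSD read-out). Cryopreserved human PBMCs received compound for 3 h before a 10 min pulse of IL-6 (10 ng/mL, STAT3) or IL-4 (1 ng/mL, STAT6). IC50 fitted after unstimulated-background subtraction and DMSO normalization.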

pSTAT3 (pY705-STAT3) = target: T2, pSTAT3 (pY705-STAT3) (Homo sapiens, UniProt P40763); assay: MSD-pSTAT-PBMC Assay (pSTAT3, IL-6 stimulated); type: cell-based; conditions: PBMC, compound 3 hrs, then 10 ng/mL IL-6 for 10 min; MSD pY705-STAT3; read-out: pSTAT3
T2 construct: host or cells: cryopreserved PBMC
Outline: as §1

T2 sequence (P40763 whole entry): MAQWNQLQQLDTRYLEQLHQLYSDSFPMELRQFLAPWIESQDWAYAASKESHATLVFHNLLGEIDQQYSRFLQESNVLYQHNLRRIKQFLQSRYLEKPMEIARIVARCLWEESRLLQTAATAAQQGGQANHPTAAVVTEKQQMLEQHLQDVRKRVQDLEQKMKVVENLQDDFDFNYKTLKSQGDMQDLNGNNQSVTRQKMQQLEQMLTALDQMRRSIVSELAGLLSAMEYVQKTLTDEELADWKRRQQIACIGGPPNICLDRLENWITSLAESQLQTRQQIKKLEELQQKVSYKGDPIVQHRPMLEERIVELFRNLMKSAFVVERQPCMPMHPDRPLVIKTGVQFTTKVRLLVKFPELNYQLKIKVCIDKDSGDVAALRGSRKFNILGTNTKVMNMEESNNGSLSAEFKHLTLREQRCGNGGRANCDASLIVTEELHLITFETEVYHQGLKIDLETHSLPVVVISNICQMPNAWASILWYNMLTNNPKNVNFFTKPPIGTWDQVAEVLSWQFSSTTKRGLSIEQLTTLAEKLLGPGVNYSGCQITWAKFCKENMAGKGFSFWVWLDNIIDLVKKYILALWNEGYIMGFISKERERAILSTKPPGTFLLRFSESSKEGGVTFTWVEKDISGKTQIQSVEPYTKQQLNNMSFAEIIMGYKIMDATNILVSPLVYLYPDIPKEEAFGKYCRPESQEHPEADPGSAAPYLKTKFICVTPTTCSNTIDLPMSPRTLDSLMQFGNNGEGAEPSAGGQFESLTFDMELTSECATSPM

SMILES	IC50 (pSTAT6 (pY641-STAT6))	IC50 (pSTAT3 (pY705-STAT3))
CC(C)(C)C(=O)SCCOP(=O)(OCCSC(=O)C(C)(C)C)C(F)(F)c1ccc2sc(C(=O)N[C@H]3C[C@@H]4C[C@@H]4C[C@H]4CC[C@@H](C(=O)N5CC(n6ccnc6)C5)N4C3=O)cc2c1 [Compound 181, S,S′-(((((2-(((3S,6S,7aS, 8aR,9aR)-3-(3-(1H-imidazol-1-yl)azetidine-1-carbonyl)-5-oxodecahydro-1H-cyclopropa[d]pyrrolo[1,2-a]azocin-6-yl)carbamoyl)benzo[b]thiophen-5-yl)difluoromethyl)phosphoryl)bis(oxy))bis(ethane-2,1-diyl)) bis(2,2-dimethyl-propanethioate)]	> 3000 nM	< 100 nM
CC(C)OC(=O)[C@@H](C)CNP(=O)(Oc1ccccc1)C(F)(F)c1ccc2sc(C(=O)N[C@H]3C[C@@H]4C[C@@H]4C[C@H]4CC[C@@H](C(=O)N5CC(C(=O)N6CCOCC6)C5)N4C3=O)cc2c1 (stereo partly drawn) [Compound 184, isopropyl (2S)-3-(((difluoro(2-(((3S,6S,7aS, 8aR,9aR)-3-(3-(morpholine-4-carbonyl)azetidine-1-carbonyl)-5-oxodecahydro-1H-cyclopropa [d]pyrrolo[1,2-a]azocin-6-yl)carbamoyl)benzo[b]thiophen-5-yl)methyl) (phenoxy)phosphoryl)amino)-2-methyl-propanoate]	> 3000 nM	> 3000 nM
CC(C)CC(=O)SCCOP(=O)(Oc1ccccc1)C(F)(F)c1ccc2sc(C(=O)N[C@H]3C[C@@H]4C[C@@H]4C[C@H]4CC[C@@H](C(=O)N5CC(C(=O)N6CCOCC6)C5)N4C3=O)cc2c1 (stereo partly drawn) [Compound 185, S-(2-(((difluoro(2-(((3S,6S,7aS, 8aR,9aR)-3-(3-(morpholine-4-carbonyl)azetidine-1-carbonyl)-5-oxodecahydro-1H-cyclopropa[d]pyrrolo[1,2-a]azocin-6-yl)carbamoyl)benzo[b]thiophen-5-yl)methyl) (phenoxy)phosphoryl)oxy)ethyl) 3-methylbutane thioate]	> 3000 nM	100 to 1000 nM
CC(C)OC(=O)[C@H](C)NP(=O)(Oc1ccccc1)C(F)(F)c1ccc2sc(C(=O)N[C@H]3C[C@@H]4C[C@@H]4C[C@H]4CC[C@@H](C(=O)N5CC(C(=O)N6CCOCC6)C5)N4C3=O)cc2c1 (stereo partly drawn) [Compound 186, isopropyl ((difluoro(2-(((3S,6S,7aS, 8aR,9aR)-3-(3-(morpholine-4-carbonyl)azetidine-1-carbonyl)-5-oxodecahydro-1H-cyclopropa[d]pyrrolo[1,2-a]azocin-6-yl)carbamoyl)benzo[b]thiophen-5-yl)methyl) (phenoxy)phosphoryl)-L-alaninate]	> 3000 nM	> 3000 nM
CC(C)(C)C(=O)OCOP(=O)(OCOC(=O)C(C)(C)C)C(F)(F)c1ccc2sc(C(=O)N[C@H]3C[C@H]4C[C@H]4C[C@H]4CC[C@@H](C(=O)N5CC(c6cccnc6)C5)N4C3=O)cc2c1 [Compound 187, (((difluoro(2-(((3S,6S,7aR, 8aS,9aR)-5-oxo-3-(3-(pyridin-3-yl)azetidine-1-carbonyl)decahydro-1H-cyclopropa[d]pyrrolo[1,2-a]azocin-6-yl)carbamoyl)benzo[b]thiophen-5-yl)methyl)phosphoryl)bis(oxy)) bis(methylene) bis(2,2-dimethyl-propanoate)]	100 to 1000 nM	< 100 nM
CCCC(=O)SCCOP(=O)(OCCSC(=O)CCC)C(F)(F)c1ccc2sc(C(=O)N[C@H]3C[C@@H]4C[C@@H]4C[C@H]4CC[C@@H](C(=O)N5CC(n6ccnc6)C5)N4C3=O)cc2c1 [Compound 188, S,S′-(((((2-(((3S,6S,7aS, 8aR,9aR)-3-(3-(1H-imidazol-1-yl)azetidine-1-carbonyl)-5-oxodecahydro-1H-cyclopropa[d]pyrrolo[1,2-a]azocin-6-yl)carbamoyl)benzo[b]thiophen-5-yl)difluoromethyl)phosphoryl)bis(oxy))bis(ethane-2,1-diyl)) dibutanethioate]	100 to 1000 nM	< 100 nM
CC(C)OC(=O)OCOP(=O)(OCOC(=O)OC(C)C)C(F)(F)c1ccc2sc(C(=O)N[C@H]3C[C@H]4C[C@H]4C[C@H]4CC[C@@H](C(=O)N5CC(c6cccnc6)C5)N4C3=O)cc2c1 [Compound 189, (((difluoro(2-(((3S,6S,7aR, 8aS,9aR)-5-oxo-3-(3-(pyridin-3-yl)azetidine-1-carbonyl)decahydro-1H-cyclopropa[d]pyrrolo[1,2-a]azocin-6-yl)carbamoyl)benzo[b]thiophen-5-yl)methyl)phosphoryl)bis(oxy)) bis(methylene) diisopropyl bis(carbonate)]	1000 to 3000 nM	< 100 nM
CC(C)CC(=O)SCCOP(=O)(Oc1ccccc1)C(F)(F)c1ccc2sc(C(=O)N[C@H]3C[C@H]4C[C@H]4C[C@H]4CC[C@@H](C(=O)N5CC(c6cccnc6)C5)N4C3=O)cc2c1 (stereo partly drawn) [Compound 193, S-(2-(((difluoro(2-(((3S,6S,7aR, 8aS,9aR)-5-oxo-3-(3-(pyridin-3-yl)azetidine-1-carbonyl)decahydro-1H-cyclopropa[d]pyrrolo[1,2-a]azocin-6-yl)carbamoyl)benzo[b]thiophen-5-yl)methyl) (phenoxy)phosphoryl)oxy)ethyl) 3-methylbutane thioate]	> 3000 nM	< 100 nM
CC(C)(C)C(=O)SCCOP(=O)(Oc1ccccc1)C(F)(F)c1ccc2sc(C(=O)N[C@H]3C[C@H]4C[C@H]4C[C@H]4CC[C@@H](C(=O)N5CC(n6ccnc6)C5)N4C3=O)cc2c1 (stereo partly drawn) [Compound 195, S-(2-((((2-(((3S,6S,7aR, 8aS,9aR)-3-(3-(1H-imidazol-1-yl)azetidine-1-carbonyl)-5-oxodecahydro-1H-cyclopropa[d]pyrrolo[1,2-a]azocin-6-yl)carbamoyl)benzo[b]thiophen-5-yl)difluoromethyl) (phenoxy)phosphoryl)oxy)ethyl) 2,2-dimethyl-propanethioate]	> 3000 nM	100 to 1000 nM
CC(C)CC(=O)SCCOP(=O)(Oc1ccccc1)C(F)(F)c1ccc2sc(C(=O)N[C@H]3C[C@H]4C[C@H]4C[C@H]4CC[C@@H](C(=O)N5CC(n6ccnc6)C5)N4C3=O)cc2c1 (stereo partly drawn) [Compound 196, S-(2-((((2-(((3S,6S,7aR, 8aS,9aR)-3-(3-(1H-imidazol-1-yl)azetidine-1-carbonyl)-5-oxodecahydro-1H-cyclopropa[d]pyrrolo[1,2-a]azocin-6-yl)carbamoyl)benzo[b]thiophen-5-yl)difluoromethyl) (phenoxy)phosphoryl)oxy)ethyl) 3-methylbutane thioate]	> 3000 nM	< 100 nM
CCCC(=O)SCCOP(=O)(Oc1ccccc1)C(F)(F)c1ccc2sc(C(=O)N[C@H]3C[C@@H]4C[C@@H]4C[C@H]4CC[C@@H](C(=O)N5CC(n6ccnc6)C5)N4C3=O)cc2c1 (stereo partly drawn) [Compound 198, S-(2-((((2-(((3S,6S,7aS, 8aR,9aR)-3-(3-(1H-imidazol-1-yl)azetidine-1-carbonyl)-5-oxodecahydro-1H-cyclopropa[d]pyrrolo[1,2-a]azocin-6-yl)carbamoyl)benzo[b]thiophen-5-yl)difluoromethyl) (phenoxy)phosphoryl)oxy)ethyl) butanethioate]	1000 to 3000 nM	< 100 nM
COC1(c2nccn2C)CN(C(=O)[C@@H]2CC[C@@H]3C[C@@H]4C[C@@H]4C[C@H](NC(=O)c4cc5cc(C(F)(F)P(=O)(OCCSC(=O)C(C)(C)C)OCCSC(=O)C(C)(C)C)ccc5s4)C(=O)N32)C1 [Compound 202, S,S′-((((difluoro(2-(((3S,6S,7aR, 8aS,9aR)-3-(3-methoxy-3-(1-methyl-1H-imidazol-2-yl)azetidine-1-carbonyl)-5-oxodecahydro-1H-cyclopropa[d]pyrrolo[1,2-a]azocin-6-yl)carbamoyl)benzo[b]thiophen-5-yl)methyl)phosphoryl)bis(oxy))bis(ethane-2,1-diyl)) bis(2,2-dimethyl-propanethioate)]	> 3000 nM	< 100 nM
CC(C)(C)C(=O)OCOP(=O)(OCOC(=O)C(C)(C)C)C(F)(F)c1ccc2sc(C(=O)N[C@H]3C[C@H]4C[C@H]4C[C@H]4CC[C@@H](C(=O)N5CC(c6c[nH]cn6)C5)N4C3=O)cc2c1 [Compound 203, ((((2-(((3S,6S,7aR, 8aS,9aR)-3-(3-(1H-imidazol-4-yl)azetidine-1-carbonyl)-5-oxodecahydro-1H-cyclopropa [d]pyrrolo[1,2-a]azocin-6-yl)carbamoyl)benzo[b]thiophen-5-yl)difluoromethyl)phosphoryl)bis(oxy)) bis(methylene) bis(2,2-dimethyl-propanoate)]	100 to 1000 nM	< 100 nM
